In assay [1] the target is T1, association between TLR2 and MyD88 (Mus musculus, UniProt Q9QUN7).
T1 construct: disrupt the physical association between endogenous TLR2 and MyD88; endogenous in cells; host or cells: BV-2 microglial cells
Nature of the assay: MyD88 immunoprecipitation / TLR2 western blot in BV-2 microglial cells. It is filed as cell-based. The following applies: BV-2 cells, peptides preincubated 1 h, 1 μM fibrillar Aβ1-42 for 1 h, serum-free. As for the experimental part:
FIG. 3(A-L). Selective disruption of TLR2 and MyD88 interaction by wtTIDM. In silico analyses of interactions of wtTIDM with TLR1, TLR4, TLR5, TLR6, TLR7, and TLR9. A rigid body interaction analyses were performed in pydock in silico analysis tool. […] G) BV-2 microglial cells preincubated with WtTIDM and mTIDM peptides for 1 h were stimulated with 1 μM fibrillar Aβ1-42 under serum-free condition. After 1 h, cellular extracts were immunoprecipitated with anti-MyD88 antibody followed by western blot of immunoprecipitates for TLR2. As control, cellular extracts were immunoprecipitated with normal IgG. Input was also immunoblotted with TLR2 and MyD88. H) Bands were scanned and values (TLR2/Input) presented as relative to control (n=2 replicates/condition in 3 independent experiments). Results were analyzed by two-sample t-tests. I) BV-2 microglial cells preincubated with wtTIDM and mTIDM peptides for 1 h were stimulated with LPS under serum-free condition. After 1 h, cellular extracts were immunoprecipitated with anti-MyD88 antibody followed by western blot of immunoprecipitates for TLR4. As control, cellular extracts were immunoprecipitated with normal IgG. Input was also immunoblotted with TLR4 and My D88. […] Results were analyzed by two-sample t-tests. […] Results were analyzed by two-sample t-tests.
Background: Immunoblotting shows a protein as a band on a membrane.

A further assay has as its system NF-κB. Kind of assay: NF-κB activation by EMSA in primary Tlr2−/− microglia. It is filed as cell-based, mouse. The following applies: peptide 1 h, 1 μM fibrillar Aβ1-42 for 1 h. The method, then:
FIG. 16 (A-F). […] Primary microglia isolated from WT (A) and TLR2 (−/−) (B) mice were treated with different concentrations of wtTIDM peptide for 1 h followed by stimulation with 1 μM fibrillar Aβ1-42 under serum-free condition. After 1 h of stimulation, the activation of NF-κB was monitored by EMSA. WT (C & D) and TLR2 (−/−) (E & F) microglia were treated with different concentrations of wtTIDM and mTIDM peptides for 1 h followed by stimulation with 1 μM fibrillar Aβ1-42 under serum-free condition. After 18 h of stimulation, levels of TNFα (C & E) and IL-1β (D & F) were monitored in supernatants by ELISA (n=2 replicates/condition in 3 independent experiments). ap<0.001 vs control; bp<0.001 vs stimuli by two-sample t-tests.
Nuclear extracts were isolated and EMSA was carried out as described before (22, 23).

The subject of another assay is 5×FAD Tg mice. Kind of assay: Glial activation and NF-κB in hippocampus of 5×FAD Tg mice. In kind it is in vivo, mouse. The following applies: 0.1 mg/kg body wt/2 d intranasal, 30 d. The text has this: FIG. 5 (A-Q). […] Actin was run as loading control. […] M) Hippocampal sections were immunolabeled with 82E1 mAb. […] Arrowhead indicates 4 kDa Aβ band.
FIG. 18 (A-B). After intranasal delivery, wtTIDM peptide suppresses the activation of NF-κB in the hippocampus of Tg mice. […] After 30 d of treatment, hippocampal extracts of all groups of mice were immunoblotted for phospho-p65 (A). Actin was run as loading control.
FIG. 19. Intranasal delivery of wtTIDM, but not mTIDM, peptide suppresses microglial expression of iNOS in the hippocampus of Tg mice. […] After 30 d of treatment, mice were sacrificed and hippocampal sections were double-labeled for Iba-1 and iNOS. Results represent analysis of two sections from each of six different mice per group.
B6SJL-Tg (APPSwFlLon,PSEN1*M146L*L286V) 6799Vas/J transgenic (5×FAD or termed here as Tg) mice were purchased from Jackson Laboratories (Bar Harbor, ME). […] Briefly, TIDM peptides were dissolved in 5 μl normal saline, mice were hold in supine position and saline was delivered into one nostril using a pipetman.
Mice were anesthetized with ketamine-xylazine injectables and perfused with PBS and then with 4% (w/v) paraformaldehyde in PBS followed by dissection of the brain from each mouse for immunofluorescence microscopy (23, 59). […] The samples were mounted and observed under an Olympus IX81 fluorescence microscope. […]

The values that follow come from US12251422B2, “Compositions and methods for treating neurological and other disorders” (Rush University Medical Center, priority 2018, dated 2025).

T1 sequence (Q9QUN7 25-784): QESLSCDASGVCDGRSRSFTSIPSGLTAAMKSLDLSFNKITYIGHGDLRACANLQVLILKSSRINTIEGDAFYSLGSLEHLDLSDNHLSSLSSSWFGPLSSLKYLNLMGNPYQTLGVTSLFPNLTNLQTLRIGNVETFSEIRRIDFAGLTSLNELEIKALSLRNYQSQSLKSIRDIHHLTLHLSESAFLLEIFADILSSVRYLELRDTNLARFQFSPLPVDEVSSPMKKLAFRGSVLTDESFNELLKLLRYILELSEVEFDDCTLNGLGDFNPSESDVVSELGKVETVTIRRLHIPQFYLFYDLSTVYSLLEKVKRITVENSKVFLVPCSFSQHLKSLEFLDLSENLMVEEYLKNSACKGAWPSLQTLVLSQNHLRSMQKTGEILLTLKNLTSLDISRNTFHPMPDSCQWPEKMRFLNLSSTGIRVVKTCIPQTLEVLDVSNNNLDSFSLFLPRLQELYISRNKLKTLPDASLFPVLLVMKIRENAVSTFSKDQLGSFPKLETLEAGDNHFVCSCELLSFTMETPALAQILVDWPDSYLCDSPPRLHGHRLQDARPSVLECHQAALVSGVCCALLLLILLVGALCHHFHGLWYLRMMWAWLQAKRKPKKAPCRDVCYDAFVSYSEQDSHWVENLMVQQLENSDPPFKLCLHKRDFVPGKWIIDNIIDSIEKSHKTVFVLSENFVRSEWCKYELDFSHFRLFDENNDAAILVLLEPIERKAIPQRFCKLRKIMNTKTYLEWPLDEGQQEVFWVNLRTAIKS

As for `CC[C@H](C)[C@H](NC(=O)[C@H](CCCCN)NC(=O)[C@@H](NC(=O)[C@H](CCC(N)=O)NC(=O)[C@H](CCCNC(=N)N)NC(=O)[C@@H](N)CC(=O)O)[C@@H](C)CC)C(=O)N[C@@H](Cc1c[nH]c2ccccc12)C(=O)N[C@@H](Cc1ccccc1)C(=O)N[C@@H](CCC(N)=O)C(=O)N[C@@H](CC(N)=O)C(=O)N[C@@H](CCCNC(=N)N)C(=O)N[C@@H](CCCNC(=N)N)C(=O)N[C@@H](CCSC)C(=O)N[C@@H](CCCCN)C(=O)N[C@@H](Cc1c[nH]c2ccccc12)C(=O)N[C@@H](CCCCN)C(=O)N[C@@H](CCCCN)C(=O)N1CCC[C@H]1C(=O)NCC(=O)N[C@@H](C)C(=O)N[C@@H](Cc1c[nH]cn1)C(=O)N[C@@H](CCC(N)=O)C(=O)N[C@@H](CCCCN)C(=O)O` [wtTIDM, drqikiwfqnrrmkwkkPGAHQK], in assay [1], the “inhibition of fibrillar Aβ1-42-increased association between TLR2 and MyD88” value is given as “inhibited”. For the same compound, the “inhibition of fibrillar Aβ1-42-induced activation of NF-κB in Tlr2−/− microglia” value with NF-κB is reported as “remained unable to inhibit”. In the assay on 5×FAD Tg mice, the “Iba-1 and phospho-p65 in the hippocampus” value is “suppression”; the “expression of iNOS in the hippocampus” value is recorded as “suppressed”.
